The target in this experiment is T1, Glucocorticoid Receptor (GR) (Homo sapiens, UniProt P04150).
T1 construct: purchased Invitrogen P2893
T1 sequence (P04150 1-777): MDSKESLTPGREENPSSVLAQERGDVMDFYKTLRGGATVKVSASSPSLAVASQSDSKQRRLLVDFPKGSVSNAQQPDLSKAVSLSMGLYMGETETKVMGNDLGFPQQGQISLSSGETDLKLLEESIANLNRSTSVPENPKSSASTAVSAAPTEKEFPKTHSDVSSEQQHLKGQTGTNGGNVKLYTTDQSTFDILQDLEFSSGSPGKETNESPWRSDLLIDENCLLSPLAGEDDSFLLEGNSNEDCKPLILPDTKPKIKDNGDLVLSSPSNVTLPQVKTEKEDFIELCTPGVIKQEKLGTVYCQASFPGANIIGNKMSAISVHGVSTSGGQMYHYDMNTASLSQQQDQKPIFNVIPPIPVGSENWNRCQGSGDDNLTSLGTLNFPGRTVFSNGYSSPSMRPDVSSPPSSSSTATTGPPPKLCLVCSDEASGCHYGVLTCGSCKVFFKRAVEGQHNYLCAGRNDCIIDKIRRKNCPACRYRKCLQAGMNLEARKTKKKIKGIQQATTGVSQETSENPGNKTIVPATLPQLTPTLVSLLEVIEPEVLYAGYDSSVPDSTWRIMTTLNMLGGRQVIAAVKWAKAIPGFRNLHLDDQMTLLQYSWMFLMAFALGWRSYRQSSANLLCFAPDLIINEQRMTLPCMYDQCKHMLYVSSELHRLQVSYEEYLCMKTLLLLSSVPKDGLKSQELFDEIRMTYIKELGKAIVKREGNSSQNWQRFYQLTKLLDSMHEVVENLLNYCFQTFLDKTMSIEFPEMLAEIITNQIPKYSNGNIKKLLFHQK
The experiment can be described thus: GR Florescence Polarization Assay (PolarScreen Glucocorticoid Receptor Competitor Assay, Red). As to conditions: Fluorescense polarization binding ranges; competition with fluorescent glucocorticoid, incubated overnight at 4° C. How it is done: GR Florescence Polarization Assay Florescence polarization assays were carried out using the PolarScreen™ Glucocorticoid Receptor Competitor Assay, Red from Invitrogen (P2893). The assay buffer was prepared according to the manufacturer's protocol and used to dilute the fluorescent glucocorticoid and GR. Compounds were prepared and serial diluted 1:4 in DMSO. Compound, fluorescent glucocorticoid and GR were added in a final volume of 20 μL and incubated overnight at 4° C. Fluorescent polarization was measured on the Perkinelmer Envision®.

pIC50: −log10 of the molar value.

As usually defined, the pIC50 is the negative decadic logarithm of the IC50, by convention in mol/L.

Compound `CCC[C@@]12CC[C@@](O)(CC)C[C@@H]1CCCc1cc(C(=O)Nc3cccnc3C)ccc12.CCC[C@]12CC[C@](O)(CC)C[C@H]1CCCc1cc(C(=O)Nc3cccnc3C)ccc12` [Example 27, (7aR,9R,11aS)-9-ethyl-9-hydroxy-11a-propyl-6,7,7a,8,9,10,11,11a-octahydro-5H-dibenzo[a,c]cycloheptene-3-carboxylic acid (2-methyl-pyridin-3-yl)-amide; compound with (7aS,9S,11aR)-9-ethyl-9-hydroxy-11a-propyl-6,7,7a,8,9,10,11,11a-octahydro-5H-dibenzo[a,c]cycloheptene-3-carboxylic acid (2-methyl-pyridin-3-yl)-amide] had a pIC50 of 5.00 to 6.00.

Take `CCC[C@@]1(O)CC[C@@]2(CC)c3ccc(C(=O)Nc4cccnc4C)cc3CCC[C@H]2C1` (single isomer, unassigned) [Example 45]: the pIC50 is greater than 7.00.

As for `Cc1ncccc1NC(=O)c1ccc2c(c1)C(=O)OC[C@@H]1C[C@@](O)(C(F)(F)F)CC[C@@]21Cc1ccccc1` [Example 115, (7aR,9R,11aS)-11a-Benzyl-9-hydroxy-N-(2-methylpyridin-3-yl)-5-oxo-9-(trifluoromethyl)-5,7,7a,8,9,10,11,11a-octahydrodibenzo[c,e]oxepine-3-carboxamide], the pIC50 was 6.00 to 7.00.

The compound `CCOC[C@@]1(O)CC[C@@]2(Cc3ccccc3)c3ccc(C(=O)Nc4cccnc4C)cc3CCC[C@H]2C1` (racemic) [Example 33, (7aS,9R,11aS)-11a-Benzyl-9-ethoxymethyl-9-hydroxy-6,7,7a,8,9,10,11,11a-octahydro-5H-dibenzo[a,c]cycloheptene-3-carboxylic acid (2-methyl-pyridin-3-yl)-amide; compound with (7aR,9S,11aR)-11a-benzyl-9-ethoxymethyl-9-hydroxy-6,7,7a,8,9,10,11,11a-octahydro-5H-dibenzo[a,c]cycloheptene-3-carboxylic acid (2-methyl-pyridin-3-yl)-amide] had a pIC50 greater than 7.00.

`CC[C@@]12CC[C@](O)(CC(C)C)C[C@@H]1CCCc1cc(C(=O)Nc3cccnc3C)ccc12` [Example 49]: the pIC50 is greater than 7.00.

For the compound `CC[C@@]12C[C@@H](O)[C@](O)(c3ccccc3)C[C@@H]1CCOc1cc(C(=O)Nc3cccnc3C)ccc12` (racemic) [Example 135, (7aS,9R,10R,11aR)-11a-Ethyl-9,10-dihydroxy-N-(2-methylpyridin-3-yl)-9-phenyl-6,7,7a,8,9,10,11,11a-octahydrodibenzo[b,d]oxepine-3-carboxamide; compound with (7aR,9S,10S,11aS)-11a-ethyl-9,10-dihydroxy-N-(2-methylpyridin-3-yl)-9-phenyl-6,7,7a,8,9,10,11,11a-octahydrodibenzo[b,d]oxepine-3-carboxamide], the negative logarithm of the IC50 (pIC50) was 6.00 to 7.00.

`CC[C@]1(O)CC[C@]2(CC)c3ccc(C(=O)Nc4cccnc4C)cc3CCC[C@@H]2C1` [Example 46]: the pIC50 is 6.00 to 7.00.

`Cc1ncccc1NC(=O)c1ccc2c(c1)CN(C)C[C@@H]1C[C@@](O)(C(F)(F)F)CC[C@@]21Cc1ccccc1` [Example 117, (3R,4aR,11bS)-11b-Benzyl-3-hydroxy-6-methyl-N-(2-methylpyridin-3-yl)-3-(trifluoromethyl)-2,3,4,4a,5,6,7,11b-octahydro-1H-dibenzo[c,e]azepine-9-carboxamide] showed a pIC50 of 6.00 to 7.00.

The compound `CCC[C@]1(O)CC[C@]2(CC)c3ccc(-c4nc5ccccc5[nH]4)cc3CCC[C@@H]2C1` (single isomer, unassigned) [Example 148] showed a pIC50 of 5.00 to 6.00.

Compound `Cc1ncccc1NC(=O)c1ccc2c(c1)CCCC1CC(O)(COC(C)C(F)(F)F)CCC21Cc1ccccc1` (mixture of isomers) [Example 100] showed a pIC50 greater than 7.00.

In turn, “(3R,4aR,11bR)-11b-benzyl-3-methyl-2,3,4,4a,5,6,7,11b-octahydro-1H-dibenzo[a,c]cycloheptene-3,9-diol; compound with (3S,4aS,11bS)-11b-benzyl-3-methyl-2,3,4,4a,5,6,7,11b-octahydro-1H-dibenzo[a,c]cycloheptene-3,9-diol [Example 7]” showed a pIC50 greater than 7.00.

Compound `CC[C@@]1(O)CC[C@@]2(CC)c3ccc(C(=O)Nc4cccnc4C)cc3CCC[C@H]2C1` [Example 47] gave a negative-log IC50 (pIC50) greater than 7.00.

For the compound `CCC[C@@]1(O)CC[C@@]2(Cc3ccccc3)c3ccc(C(=O)Nc4cccnc4C)cc3CCC[C@H]2C1` (racemic) [Example 31, (7aS,9R,11aS)-11a-Benzyl-9-hydroxy-9-propyl-6,7,7a,8,9,10,11,11a-octahydro-5H-dibenzo[a,c]cycloheptene-3-carboxylic acid (2-methyl-pyridin-3-yl)-amide; compound with (7aR,9S,11aR)-11a-benzyl-9-hydroxy-9-propyl-6,7,7a,8,9,10,11,11a-octahydro-5H-dibenzo[a,c]cycloheptene-3-carboxylic acid (2-methyl-pyridin-3-yl)-amide], the pIC50 is greater than 7.00.

For `CC[C@]1(O)CC[C@]2(Cc3ccccc3)c3ccc(C(=O)Nc4cccnc4C)cc3CCC[C@@H]2C1` (single isomer, unassigned) [Example 15], the pIC50 was 6.00 to 7.00.

For the compound `CC[C@@]12CC[C@](O)(c3ccccc3)C[C@@H]1CCCc1cc(C(=O)Nc3cccnc3C)ccc12` (single isomer, unassigned) [Example 122], the pIC50 was greater than 7.00.

Compound `Cc1ncccc1NC(=O)c1ccc2c(c1)CN(C)C[C@H]1CC(=O)CC[C@@]21Cc1ccccc1` [Example 108, (4aS,11bS)-11b-Benzyl-6-methyl-N-(2-methylpyridin-3-yl)-3-oxo-2,3,4,4a,5,6,7,11b-octahydro-1H-dibenzo[c,e]azepine-9-carboxamide] gave a pIC50 of 5.00 to 6.00.

The compound `CC[C@]12CC[C@](C)(O)C[C@H]1CCCc1cc(C(=O)Nc3cccnc3C)ccc12` (single isomer, unassigned) [Example 59] showed a pIC50 of 5.00 to 6.00.

The compound `Cc1ncccc1NC(=O)c1ccc2c(c1)CCC[C@H]1CC(C)(O)CC[C@]21Cc1ccccc1` (stereo in doubt) [Example 91, (7aS,9R,11aR)-11a-benzyl-9-hydroxy-9-methyl-6,7,7a,8,9,10,11,11a-octahydro-5H-dibenzo[a,c]cycloheptene-3-carboxylic acid (2-methyl-pyridin-3-yl)-amide] gave a pIC50 of 6.00 to 7.00.

`Cc1ncccc1NC(=O)c1ccc2c(c1)CCC[C@@H]1C[C@@](O)(C(F)(F)F)CC[C@@]21Cc1ccccc1` (racemic) [Example 3, (7aR,9R,11aS)-11a-Benzyl-9-hydroxy-9-trifluoromethyl-6,7,7a,8,9,10,11,11a-octahydro-5H-dibenzo[a,c]cycloheptene-3-carboxylic acid (2-methyl-pyridin-3-yl)-amide; compound with (7aS,9S,11aR)-11a-benzyl-9-hydroxy-9-trifluoromethyl-6,7,7a,8,9,10,11,11a-octahydro-5H-dibenzo[a,c]cycloheptene-3-carboxylic acid (2-methyl-pyridin-3-yl)-amide]: the pIC50 is greater than 7.00.

As to `CCC[C@@]1(O)CC[C@@]2(CC)c3ccc(-c4nc5ccccc5[nH]4)cc3CCC[C@H]2C1` (single isomer, unassigned) [Example 147], the pIC50 was 5.00 to 6.00.

`CC[C@@]1(O)CC[C@@]2(Cc3ccccc3)c3ccc(C(=O)NCCN4CCOCC4)cc3CCC[C@H]2C1` [Example 84] showed a negative-log IC50 (pIC50) of less than 5.00.

Take `CCC[C@@]1(O)CC[C@@]2(CC)c3ccc(C(=O)Nc4cccnc4N)cc3CCC[C@H]2C1` (racemic) [Example 149, (7aS,9R,11aR)-11a-Ethyl-9-hydroxy-9-propyl-6,7,7a,8,9,10,11,11a-octahydro-5H-dibenzo[a,c]cycloheptene-3-carboxylic acid (2-amino-pyridin-3-yl)-amide; compound with (7aR,9S,11aS)-11a-ethyl-9-hydroxy-9-propyl-6,7,7a,8,9,10,11,11a-octahydro-5H-dibenzo[a,c]cycloheptene-3-carboxylic acid(2-amino-pyridin-3-yl)-amide]: the negative logarithm of the IC50 (pIC50) was greater than 7.00.

The compound `Cc1ncccc1NC(=O)c1ccc2c(c1)CCC[C@H]1C[C@](O)(C(F)(F)F)CC[C@]21Cc1ccccc1` [Example 107, (7aS,9S,11aR)-11a-Benzyl-9-hydroxy-9-trifluoromethyl-6,7,7a,8,9,10,11,11a-octahydro-5H-dibenzo[a,c]cycloheptene-3-carboxylic acid (2-methyl-pyridin-3-yl)-amide] had a pIC50 of 6.00 to 7.00.

For `CC[C@@]1(O)CC[C@@]2(Cc3ccccc3)c3ccc(C(=O)Nc4ccnn4C)cc3CCC[C@H]2C1` [Example 75], the pIC50 was greater than 7.00.

Source of the values: patent US20120238549A1, “Nuclear Hormone Receptor Modulators” (ABBOTT LABORATORIES, priority 2011, published 2012).
